# Earlier results as cited in doi:10.1101/2025.09.24.678446, “Exploiting Peptide Chirality and Transport to Dissect the Complex Mechanism of Action of Host Peptides on Bacteria” (bioRxiv, 2025).
# Tested on: BacA
substance,measurement,value
bleomycin,transport by BacA,"BacA has previously been shown to transport many varieties of peptides, including bleomycin"
